Data from patent US11420958B2, “Aryl and heteroaryl substituted indole compounds” (BRISTOL-MYERS SQUIBB COMPANY, priority 2017, dated 2022).

Experiments:
Type in all cases: cell-based
human TLR9 = human TLR9 (Homo sapiens (Human), UniProt Q9NR96); assay: TLR9 inhibition reporter assay (HEK-Blue, SEAP); conditions: HEK-Blue cells overexpressing human TLR9, ODN2006 5 nM stimulation
Summary of the method: (§1)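 HEK-Blue cells expressing human TLR7, TLR8 or TLR9 with NF-κB/AP-1-driven SEAP reporter; compounds 0.05 nM–50 μM, 30 min pre-treatment at room temperature. Stimulated with gardiquimod 7.5 μM (TLR7), R848 15.9 μM (TLR8) or ODN2006 5 nM (TLR9), 22 h at 37 °C; % inhibition of SEAP signal relative to agonist+DMSO and known-inhibitor wells.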

human TLR8 = human TLR8 (Homo sapiens (Human), UniProt Q9NR97); assay: TLR8 inhibition reporter assay (HEK-Blue, SEAP); conditions: HEK-Blue cells overexpressing human TLR8, R848 15.9 μM stimulation
Summary of the method: as §1

human TLR7 = human TLR7 (Homo sapiens (Human), UniProt Q9NYK1); assay: TLR7 inhibition reporter assay (HEK-Blue, SEAP); conditions: HEK-Blue cells overexpressing human TLR7, gardiquimod 7.5 μM stimulation
Summary of the method: as §1

Chain of human TLR7 (Q9NYK1 27-1049): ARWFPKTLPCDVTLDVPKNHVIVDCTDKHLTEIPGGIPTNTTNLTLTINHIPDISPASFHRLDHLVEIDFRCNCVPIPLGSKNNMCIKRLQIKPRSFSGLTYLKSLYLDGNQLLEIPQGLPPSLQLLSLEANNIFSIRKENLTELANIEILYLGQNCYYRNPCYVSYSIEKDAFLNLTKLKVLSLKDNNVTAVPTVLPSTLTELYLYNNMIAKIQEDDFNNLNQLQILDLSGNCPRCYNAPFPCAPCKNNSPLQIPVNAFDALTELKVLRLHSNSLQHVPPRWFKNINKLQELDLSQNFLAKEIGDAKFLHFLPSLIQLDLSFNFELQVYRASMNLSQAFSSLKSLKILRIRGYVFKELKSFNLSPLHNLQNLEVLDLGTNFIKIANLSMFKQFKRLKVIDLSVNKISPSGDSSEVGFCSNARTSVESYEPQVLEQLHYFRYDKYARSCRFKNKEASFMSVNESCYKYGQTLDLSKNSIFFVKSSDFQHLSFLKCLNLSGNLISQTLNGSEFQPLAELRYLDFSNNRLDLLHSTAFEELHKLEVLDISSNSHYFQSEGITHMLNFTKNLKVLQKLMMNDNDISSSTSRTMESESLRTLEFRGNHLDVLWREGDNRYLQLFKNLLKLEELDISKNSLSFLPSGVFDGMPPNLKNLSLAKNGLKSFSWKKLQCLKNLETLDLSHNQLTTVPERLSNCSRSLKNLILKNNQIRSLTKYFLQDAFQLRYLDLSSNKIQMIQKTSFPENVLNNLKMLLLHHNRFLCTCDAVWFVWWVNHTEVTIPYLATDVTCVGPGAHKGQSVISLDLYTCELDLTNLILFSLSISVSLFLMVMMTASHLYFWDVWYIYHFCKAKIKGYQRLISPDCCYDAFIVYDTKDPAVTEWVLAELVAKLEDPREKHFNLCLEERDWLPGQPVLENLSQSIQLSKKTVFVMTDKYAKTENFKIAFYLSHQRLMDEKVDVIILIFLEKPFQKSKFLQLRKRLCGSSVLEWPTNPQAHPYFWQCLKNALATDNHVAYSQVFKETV
Chain of human TLR9 (Q9NR96 26-1032): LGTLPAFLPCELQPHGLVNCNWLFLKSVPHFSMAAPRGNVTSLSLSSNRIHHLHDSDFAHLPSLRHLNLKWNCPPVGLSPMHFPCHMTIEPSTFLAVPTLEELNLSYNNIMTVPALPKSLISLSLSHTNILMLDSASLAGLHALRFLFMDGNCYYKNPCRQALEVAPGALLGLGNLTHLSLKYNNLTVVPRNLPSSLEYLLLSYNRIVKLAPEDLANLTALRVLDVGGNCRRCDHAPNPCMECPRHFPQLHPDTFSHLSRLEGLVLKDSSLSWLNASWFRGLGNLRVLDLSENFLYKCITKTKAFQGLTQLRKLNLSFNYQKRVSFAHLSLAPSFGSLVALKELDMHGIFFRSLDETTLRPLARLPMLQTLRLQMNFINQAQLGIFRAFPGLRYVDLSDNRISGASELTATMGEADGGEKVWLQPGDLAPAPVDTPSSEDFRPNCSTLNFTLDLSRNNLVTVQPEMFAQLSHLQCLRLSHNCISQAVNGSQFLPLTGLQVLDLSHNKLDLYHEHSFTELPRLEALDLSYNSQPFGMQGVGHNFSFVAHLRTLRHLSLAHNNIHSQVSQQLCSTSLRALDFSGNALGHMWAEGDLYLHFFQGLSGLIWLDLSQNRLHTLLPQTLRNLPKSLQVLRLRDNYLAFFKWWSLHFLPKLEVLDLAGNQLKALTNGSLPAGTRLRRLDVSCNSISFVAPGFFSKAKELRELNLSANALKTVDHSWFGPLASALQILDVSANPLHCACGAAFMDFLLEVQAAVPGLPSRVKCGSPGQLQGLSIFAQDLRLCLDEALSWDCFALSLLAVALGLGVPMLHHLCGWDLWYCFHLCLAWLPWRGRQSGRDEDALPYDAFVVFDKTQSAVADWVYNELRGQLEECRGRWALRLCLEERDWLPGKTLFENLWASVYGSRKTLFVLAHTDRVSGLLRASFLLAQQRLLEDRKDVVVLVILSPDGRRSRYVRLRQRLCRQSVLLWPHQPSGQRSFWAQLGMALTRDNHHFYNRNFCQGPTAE
Chain of human TLR8 (Q9NR97 27-1041): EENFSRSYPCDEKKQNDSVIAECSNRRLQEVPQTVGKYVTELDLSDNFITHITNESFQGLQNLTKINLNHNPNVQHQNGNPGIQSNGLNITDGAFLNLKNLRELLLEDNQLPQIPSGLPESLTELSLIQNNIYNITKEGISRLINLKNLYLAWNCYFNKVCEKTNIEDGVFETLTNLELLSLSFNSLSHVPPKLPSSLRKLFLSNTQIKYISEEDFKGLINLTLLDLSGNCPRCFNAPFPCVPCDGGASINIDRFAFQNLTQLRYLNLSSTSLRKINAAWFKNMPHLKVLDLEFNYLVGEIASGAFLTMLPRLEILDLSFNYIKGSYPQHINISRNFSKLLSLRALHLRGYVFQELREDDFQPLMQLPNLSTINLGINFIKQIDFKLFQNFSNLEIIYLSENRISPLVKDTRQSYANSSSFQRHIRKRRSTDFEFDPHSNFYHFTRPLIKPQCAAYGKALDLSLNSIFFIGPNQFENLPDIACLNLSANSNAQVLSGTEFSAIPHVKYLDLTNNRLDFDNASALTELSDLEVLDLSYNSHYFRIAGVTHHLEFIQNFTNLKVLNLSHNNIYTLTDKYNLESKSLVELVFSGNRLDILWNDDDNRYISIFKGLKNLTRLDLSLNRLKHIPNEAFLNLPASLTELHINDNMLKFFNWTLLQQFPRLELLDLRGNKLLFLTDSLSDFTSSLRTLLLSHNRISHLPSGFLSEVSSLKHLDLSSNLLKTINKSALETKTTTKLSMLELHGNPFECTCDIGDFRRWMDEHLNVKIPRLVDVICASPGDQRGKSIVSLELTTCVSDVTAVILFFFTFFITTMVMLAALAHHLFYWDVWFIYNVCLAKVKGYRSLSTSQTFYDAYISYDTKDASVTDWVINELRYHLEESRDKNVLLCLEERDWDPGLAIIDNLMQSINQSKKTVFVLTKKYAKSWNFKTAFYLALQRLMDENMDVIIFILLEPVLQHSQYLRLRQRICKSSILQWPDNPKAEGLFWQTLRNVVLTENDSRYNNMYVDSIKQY

Row | Structure (SMILES) | IC50 (human TLR9) | IC50 (human TLR8) | IC50 (human TLR7)
1 | CCc1c(-c2ccc(OC)c(OC)c2)[nH]c2ccc(-c3noc(CCOC)n3)cc12 [Example 451, 3-(2-(3,4-dimethoxyphenyl)-3-ethyl-1H-indol-5-yl)-5-(2-methoxyethyl)-1,2,4-oxadiazole] | > 50000 nM | 1290 nM | 3980 nM
2 | CCc1c(-c2ccc(OC)c(OC)c2)[nH]c2ccc(-c3noc([C@H]4C[C@H]5CC[C@@H](C4)N5)n3)cc12 [Example 452, 5-((1R,3r,5S)-8-azabicyclo[3.2.1]octan-3-yl)-3-(2-(3,4-dimethoxyphenyl)-3-ethyl-1H-indol-5-yl)-1,2,4-oxadiazole] | 1930 nM | 52 nM | 282 nM
3 | CCc1c(-c2ccnc(C)c2)[nH]c2ccc(-c3noc(CN(C)C)n3)cc12 [Example 453, 1-(3-(3-ethyl-2-(2-methylpyridin-4-yl)-1H-indol-5-yl)-1,2,4-oxadiazol-5-yl)-N,N-dimethylmethanamine] | 23200 nM | 32 nM | 703 nM
4 | CCc1c(-c2ccc(OC)c(OC)c2)[nH]c2ccc(-c3noc(CCN(C)C)n3)cc12 [Example 454, 2-(3-(2-(3,4-dimethoxyphenyl)-3-ethyl-1H-indol-5-yl)-1,2,4-oxadiazol-5-yl)-N,N-dimethylethan-1-amine] | 11300 nM | 19 nM | 306 nM
5 | CCc1c(-c2ccnc(C)c2)[nH]c2ccc(-c3noc([C@H]4CCNC4)n3)cc12 [Example 455, (S)-3-(3-ethyl-2-(2-methylpyridin-4-yl)-1H-indol-5-yl)-5-(pyrrolidin-3-yl)-1,2,4-oxadiazole] | 15900 nM | 27 nM | 2220 nM
6 | CCc1c(-c2ccc(OC)c(OC)c2)[nH]c2ccc(-c3noc([C@@H](N)CCCN)n3)cc12 [Example 463, (S)-1-(3-(2-(3,4-dimethoxyphenyl)-3-ethyl-1H-indol-5-yl)-1,2,4-oxadiazol-5-yl)butane-1,4-diamine] | 7150 nM | 126 nM | 772 nM
7 | COc1ccc(-c2[nH]c3ccc(-c4cc[nH]c4)cc3c2C(C)C)cc1OC [Example 465, 2-(3,4-dimethoxyphenyl)-3-isopropyl-5-(1H-pyrrol-3-yl)-1H-indole] | 33000 nM | 81 nM | 305 nM
8 | CCc1c(-c2ccc(OC)c(OC)c2)[nH]c2ccc(-c3cccnc3)cc12 [Example 466, 2-(3,4-dimethoxyphenyl)-3-ethyl-5-(pyridin-3-yl)-1H-indole] | > 50000 nM | 368 nM | 3880 nM
9 | CC(C)c1c(-c2ccnc3[nH]ncc23)[nH]c2ccc(-c3cccnc3)cc12 [Example 467, 4-(3-isopropyl-5-(pyridin-3-yl)-1H-indol-2-yl)-1H-pyrazolo[3,4-b]pyridine] | 24200 nM | 18 nM | 208 nM
10 | CC(C)c1c(-c2ccnc3[nH]ncc23)[nH]c2ccc(-c3ccc4nccnc4c3)cc12 [Example 468, 6-(3-isopropyl-2-(1H-pyrazolo[3,4-b]pyridin-4-yl)-1H-indol-5-yl)quinoxaline] | 47300 nM | 35 nM | 450 nM
11 | CC(C)c1c(-c2ccnc3[nH]ncc23)[nH]c2ccc(-c3ccc4ncccc4c3)cc12 [Example 469, 6-(3-isopropyl-2-(1H-pyrazolo[3,4-b]pyridin-4-yl)-1H-indol-5-yl)quinoline] | > 50000 nM | 129 nM | 606 nM
12 | CC(C)c1c(-c2ccnc3[nH]ncc23)[nH]c2ccc(-c3cccc4cnccc34)cc12 [Example 470, 5-(3-isopropyl-2-(1H-pyrazolo[3,4-b]pyridin-4-yl)-1H-indol-5-yl)isoquinoline] | > 50000 nM | 56 nM | 2590 nM
13 | CCc1c(-c2ccc(OC)c(OC)c2)[nH]c2ccc(-c3ccncc3)cc12 [Example 471, 2-(3,4-dimethoxyphenyl)-3-ethyl-5-(pyridin-4-yl)-1H-indole] | 42300 nM | 238 nM | 2180 nM

Now from value to molecule:

Row | IC50 (human TLR9) | IC50 (human TLR8) | IC50 (human TLR7) | Structure (SMILES)
14 | 1850 nM | 37 nM | 338 nM | CCc1c(-c2ccc(OC)c(OC)c2)[nH]c2ccc(-c3noc(C4CCN(C(C)C)CC4)n3)cc12 [Example 445, 3-(2-(3,4-dimethoxyphenyl)-3-ethyl-1H-indol-5-yl)-5-(1-isopropylpiperidin-4-yl)-1,2,4-oxadiazole]
15 | 1020 nM | 4 nM | 27 nM | CC(C)c1c(-c2ccnc3[nH]ncc23)[nH]c2ccc(-c3noc(C4CCN(C(=O)CN(C)C)CC4)n3)cc12 [Example 446, 2-(dimethylamino)-1-(4-(3-(3-isopropyl-2-(1H-pyrazolo[3,4-b]pyridin-4-yl)-1H-indol-5-yl)-1,2,4-oxadiazol-5-yl)piperidin-1-yl)ethan-1-one]
16 | 3460 nM | 201 nM | 740 nM | CCc1c(-c2ccc(OC)c(OC)c2)[nH]c2ccc(-c3noc(CCC4CCNCC4)n3)cc12 [Example 447, 3-(2-(3,4-dimethoxyphenyl)-3-ethyl-1H-indol-5-yl)-5-(2-(piperidin-4-yl)ethyl)-1,2,4-oxadiazole]
17 | 1800 nM | 50 nM | 327 nM | CCc1c(-c2ccnc(C)c2)[nH]c2ccc(-c3noc(CCC4CCNCC4)n3)cc12 [Example 448, 3-(3-ethyl-2-(2-methylpyridin-4-yl)-1H-indol-5-yl)-5-(2-(piperidin-4-yl)ethyl)-1,2,4-oxadiazole]
18 | 1360 nM | 37 nM | 239 nM | CCc1c(-c2ccnc(C)c2)[nH]c2ccc(-c3noc(CCC4CCN(C(C)C)CC4)n3)cc12 [Example 449, 3-(3-ethyl-2-(2-methylpyridin-4-yl)-1H-indol-5-yl)-5-(2-(1-isopropylpiperidin-4-yl)ethyl)-1,2,4-oxadiazole]
19 | 1690 nM | 19 nM | 121 nM | CCc1c(-c2ccc(OC)c(OC)c2)[nH]c2ccc(-c3noc(C4CCNC4)n3)cc12 (stereo not drawn) [Example 450, 3-(2-(3,4-dimethoxyphenyl)-3-ethyl-1H-indol-5-yl)-5-(pyrrolidin-3-yl)-1,2,4-oxadiazole]
20 | 593 nM | 18 nM | 78 nM | CCc1c(-c2ccnc(C)c2)[nH]c2ccc(-c3noc(C4CCNC4)n3)cc12 (stereo not drawn) [Example 456, 3-(3-ethyl-2-(2-methylpyridin-4-yl)-1H-indol-5-yl)-5-(pyrrolidin-3-yl)-1,2,4-oxadiazole]
21 | 686 nM | 11 nM | 228 nM | CCc1c(-c2ccnc(C)c2)[nH]c2ccc(-c3noc(C4CCCNC4)n3)cc12 (stereo not drawn) [Example 457, 3-(3-ethyl-2-(2-methylpyridin-4-yl)-1H-indol-5-yl)-5-(piperidin-3-yl)-1,2,4-oxadiazole]
22 | 1050 nM | 37 nM | 163 nM | CCc1c(-c2ccnc(C)c2)[nH]c2ccc(-c3noc(C4CNC4)n3)cc12 [Example 458, 5-(azetidin-3-yl)-3-(3-ethyl-2-(2-methylpyridin-4-yl)-1H-indol-5-yl)-1,2,4-oxadiazole]
23 | 2180 nM | 19 nM | 306 nM | CCc1c(-c2ccc(OC)c(OC)c2)[nH]c2ccc(-c3noc(C4CCNCC4)n3)cc12 [Example 459, 3-(2-(3,4-dimethoxyphenyl)-3-ethyl-1H-indol-5-yl)-5-(piperidin-4-yl)-1,2,4-oxadiazole]
24 | 2680 nM | 7.3 nM | 539 nM | CCc1c(-c2ccc(OC)c(OC)c2)[nH]c2ccc(-c3noc(CCNC)n3)cc12 [Example 460, 2-(3-(2-(3,4-dimethoxyphenyl)-3-ethyl-1H-indol-5-yl)-1,2,4-oxadiazol-5-yl)-N-methylethan-1-amine]
25 | 1540 nM | 72 nM | 321 nM | CCc1c(-c2ccnc(C)c2)[nH]c2ccc(-c3noc(C4CC5(CCNCC5)C4)n3)cc12 [Example 461, 3-(3-ethyl-2-(2-methylpyridin-4-yl)-1H-indol-5-yl)-5-(7-azaspiro[3.5]nonan-2-yl)-1,2,4-oxadiazole]
26 | 1900 nM | 4.1 nM | 156 nM | CC(C)c1c(-c2ccnc3[nH]ncc23)[nH]c2ccc(-c3noc([C@@H]4CCCNC4)n3)cc12 [Example 462, (R)-3-(3-isopropyl-2-(1H-pyrazolo[3,4-b]pyridin-4-yl)-1H-indol-5-yl)-5-(piperidin-3-yl)-1,2,4-oxadiazole]
27 | 2730 nM | 183 nM | 1650 nM | CCc1c(-c2ccc(OC)c(OC)c2)[nH]c2ccc(-c3noc([C@@H](N)CCCCN)n3)cc12 [Example 464, (S)-1-(3-(2-(3,4-dimethoxyphenyl)-3-ethyl-1H-indol-5-yl)-1,2,4-oxadiazol-5-yl)pentane-1,5-diamine]
28 | 1470 nM | 10 nM | 31 nM | COc1ccc(-c2[nH]c3ccc(-c4nnc([C@H]5CCCNC5)o4)cc3c2CC(F)(F)F)cc1OC [compound 57]
